Assay results taken from patent US10166237B2, “Compounds and methods for inducing chondrogenesis” (The Scripps Research Institute, priority 2011, dated 2019).

These molecules were tested on human mesenchymal stem cells (hMSCs) (assay: chondrogenic nodule formation by hMSCs (high throughput screen)). Conditions: not given.
Type: cell-based
Method: The primary screening assay was based upon the development of chondrogenic nodules. Chondrocytes can grow in monolayer in vitro, but to more closely mimic their native environment in the joint, the cells are routinely cultured in non-adherent conditions such as in pellet cultures or alginate bead suspensions.
In the actual screen of a library of 22,000 structurally diverse heterocycles, 10^4 primary hMSCs were plated in 384 well plates in serum free DMEM. The cells were treated with 5 μM of each compound and incubated for 4 days. […] To facilitate high throughput imaged-based detection, the chondrogenic nodules were stained with […]. The Nile Red stained nodules were quantified on an Acumen eX3 (high content imaging device) by excitation with a 488 laser for rapid detection of the nodules.
Primary hMSCs grown in a 96 well Greiner plates (50,000/well) were incubated for 4 days in the presence of the 5 uM of each DMSO or 100 nM of PRO1. On day 4, the cells were fixed with 4% formalin for 10 minutes, washed and stained with 1 μg/ml of Rhodamine B for 2 hours at room temperature.

Structure (SMILES) | Activity (chondrogenic nodules formed in % of cells)
NS(=O)(=O)c1cccc(NC(=O)c2ccccc2C(=O)O)c1 [Compound N17] | ** (chondrogenic nodules formed in at least 25% but less than 50% of cells)
N#Cc1ccc(NC(=O)c2ccccc2-c2ccccc2C(=O)O)cc1 [Compound B32] | ** (chondrogenic nodules formed in at least 25% but less than 50% of cells)
O=C(O)c1ccccc1C(=O)Nc1ncc[nH]1 [Compound N34] | ** (chondrogenic nodules formed in at least 25% but less than 50% of cells)
N#Cc1ccc(C(=O)NCc2ccccc2C(=O)O)cc1 [MS11] | ** (chondrogenic nodules formed in at least 25% but less than 50% of cells)
N#Cc1ccccc1CNC(=O)c1ccccc1C(=O)O [MS04] | ** (chondrogenic nodules formed in at least 25% but less than 50% of cells)
O=C(O)c1ccccc1C(=O)Nc1ccc(CCO)cc1 [Compound N26] | *** (chondrogenic nodules formed in at least 50% but less than 75% of cells)
N#Cc1ccc(N2C(=O)c3ccccc3C2=O)cc1 [MS28] | ** (chondrogenic nodules formed in at least 25% but less than 50% of cells)
O=C(O)c1ccccc1C(=O)Nc1cnccn1 [Compound N52] | ** (chondrogenic nodules formed in at least 25% but less than 50% of cells)
N#Cc1ccc(-c2c[nH]c3c(C(=O)O)cccc23)cc1 [MS21] | *** (chondrogenic nodules formed in at least 50% but less than 75% of cells)
N#Cc1ccc(NC(=O)c2ccccc2S(=O)(=O)O)cc1 [Compound A22] | ** (chondrogenic nodules formed in at least 25% but less than 50% of cells)
O=C(O)c1ccc(C(=O)CC2OC(=O)c3ccccc32)cc1 (stereo not shown) [MS18-1] | ** (chondrogenic nodules formed in at least 25% but less than 50% of cells)
CS(=O)(=O)Nc1ccccc1C(=O)Nc1ccc(C#N)cc1 [Compound A13] | ** (chondrogenic nodules formed in at least 25% but less than 50% of cells)
CNCc1cccc(NC(=O)c2ccccc2C(=O)O)c1 [Compound N24] | *** (chondrogenic nodules formed in at least 50% but less than 75% of cells)
CC(=O)c1ccccc1C(=O)Nc1ccc(C#N)cc1 [Compound A09] | ** (chondrogenic nodules formed in at least 25% but less than 50% of cells)
O=C(O)c1cccc(NC(=O)c2ccccc2C(=O)O)c1 [Compound N14] | ** (chondrogenic nodules formed in at least 25% but less than 50% of cells)
O=C(O)c1ccc(N2C(=O)c3ccccc3C2=O)cc1 [MS29] | *** (chondrogenic nodules formed in at least 50% but less than 75% of cells)
COC(=O)NCc1ccc(NC(=O)c2ccccc2C(=O)O)cc1 [PM11] | ** (chondrogenic nodules formed in at least 25% but less than 50% of cells)
O=C(O)c1ccccc1C(=O)Nc1cccc(OC(F)F)c1 [Compound N05] | ** (chondrogenic nodules formed in at least 25% but less than 50% of cells)
O=C(O)c1ccccc1C(=O)Nc1cnc(-c2ccccc2)s1 [Compound N45] | *** (chondrogenic nodules formed in at least 50% but less than 75% of cells)

Same assay, conditions: Homo sapiens, Mesenchymal stem cells; first value of the cell (before the slash); read-out: CHONDROGENIC μM EC50

Structure (SMILES) | EC50
O=C(c1ccccc1)c1ccc(NC(=O)c2ccccc2C(=O)O)cc1 | > 10 µM
O=C(O)c1ccc(NC(=O)c2ccccc2C(=O)O)cc1Cl [LK63, 4-(2-carboxybenzamido)-2-chlorobenzoic acid] | 0.126 µM
CCCOC(=O)c1ccc(NC(=O)c2ccccc2C(=O)O)cc1 | > 10 µM
COC(=O)c1ccccc1C(=O)Nc1ccc(-c2ccccc2)cc1 [LK55b, Methyl 2-([1,1′-biphenyl]-4-ylcarbamoyl)benzoate] | 0.124 µM

What follows are molecules tested on primary bovine chondrocytes (assay: inhibition of cytokine-induced nitric oxide release (Greiss reaction)). Conditions: Bos taurus, Chondrocyte; second value of the cell (after the slash); TNFα and oncostatin M, 48 hours; read-out: NO INHIBTION μM IC50.
Type: cell-based
Source text: In the screen, hMSCs were used as a surrogate to future targeting of the resident MSCs with the cartilage joint. It was in that setting upon which we identified PRO1. In a joint injury, the primary cell type a therapeutic would have contact with is the chondrocyte. Although cartilage or chondrocyte-targeted screening has not lead to the development of a successful drug modifying osteoarthritis drug (DMOAD) to date, it is believed that a stem cell-based therapeutic would protect and even repair the existing chondrocytes. Therefore, protection of the articular chondrocytes and cartilage from a mature bovine knee was assessed. PRO1 and its analogues were incubated with primary bovine chondrocytes or cartilage explants cultures grown in the presence of TNFα and oncostatin M to mimic the cytokine-induced damage that can occur during OA. In the presence of the cytokine cocktail, in vitro cultured primary chondrocytes released 4-5 fold more nitric oxide (NO) than the untreated chondrocytes (50 μM vs 10 μM) as measured by the Greiss reaction. In cells treated with the cytokine cocktail and PRO1, the small molecule could effectively block the release of NO by up to 70% FIG. 2C). Similarly, in ex vivo treated cartilage explants, cytokine-induced release of glycosaminoglycans (GAG) was reduced by up to 60% by PRO1 (FIG. 2D). Finally, hMSC were grown in pellet culture for 21 days.
Primary hMSCs were plated (10,000/well) in 384-well plates and cultured for 18 days. The cells were fixed with 4% formalin, permeabilized with triton (0.5%), digested with 0.5 mg/ml collagenase II to unwind the collagen fibrils, and then immunostained with an antibody recognizing type II collagen. DAPI (2 μg/ml) was added to visualize the nuclei. The chondrogenic nodules stained positive for type II collagen but lacked expression of type X collagen and osteocalcin, markers for chondrocyte hypertrophy and osteoblasts, respectively (not shown). 10,000 hMSCs (passages 3-5) were plated in Greiner 384-well low-bottom plates on day 1. The cells were allowed to adhere and stimulated for 48 hrs (days 2-3) with the indicated stimuli in MSC growth media (Millipore). The media was then removed and replaced with serum-free DMEM for an additional 16 days. This media was replenished on days 10 and 15 of the assay. Primary bovine chondrocytes were isolated from the articular surfaces from mature knees. After one week of culture, 8,500 cells were trypsinized and plated in Greiner 384-well white clear-bottom plates in growth media. […] 20 μl of the supernatant was mixed with 20 μl of the Greiss reagent and quantitated at 540 nm as described by the Promega kit instructions. Bovine cartilage explants (cut in circular explants in a 96 well plate) were cultured in the presence of 20 ng/ml TNFα and 10 ng/ml oncostatin M to induce GAG release for 72 hours (FIG. 2D). PRO1 was added at the indicated concentrations during the entire 72 hrs. […] Parafin sections were hydrated, incubated in low pH Antigen unmasking solution (Vector) at 90 C for 10 minutes, permeabilized with 0.1% collagenase II (only for the sections stained with type II collagen) for 10 minutes, blocked with CAS block for 10 minutes and then incubated with the primary antibody (type II collagen, aggrecan or Timp1) antibody (Abcam) overnight at 4 C. The antigens were visualized through standard ABC detection methods and developed with DAB. Representative of 3 sections stained/treatment group (independent experiments).

Structure (SMILES) | IC50
O=C(c1ccccc1)c1ccc(NC(=O)c2ccccc2C(=O)O)cc1 | 2.5 µM
O=C(O)c1ccc(C(=O)Nc2ccc(I)cc2)c(C(=O)O)c1 | > 10 µM
O=C(O)c1ccc(NC(=O)c2ccccc2C(=O)O)cc1Cl [LK63, 4-(2-carboxybenzamido)-2-chlorobenzoic acid] | 0.0298 µM
O=C(Nc1ccc(Cc2ccccc2)cc1)c1cc(Cl)cc(Cl)c1C(=O)O | > 10 µM
C=C(C)CS(=O)(=O)c1ccc(NC(=O)c2ccccc2C(=O)O)cc1 | 0.925 µM
O=C(O)c1cc([N+](=O)[O-])ccc1C(=O)Nc1ccc(-c2ccccc2)cc1 | > 10 µM
CCCOC(=O)c1ccc(NC(=O)c2ccccc2C(=O)O)cc1 | 0.624 µM
CCN(CC)c1ccc(NC(=O)c2ccccc2C(=O)O)cc1 | 2.98 µM
COC(=O)c1ccccc1C(=O)Nc1ccc(-c2ccccc2)cc1 [LK55b, Methyl 2-([1,1′-biphenyl]-4-ylcarbamoyl)benzoate] | 0.234 µM
O=C(O)c1ccc(C(=O)Nc2ccc(Br)cc2)c(C(=O)O)c1 | > 10 µM
O=C(O)c1cc(Cl)c(Cl)cc1C(=O)Nc1ccc(Cl)cc1 | > 10 µM
O=C(O)c1ccccc1C(=O)Nc1ccc(C(=O)N2CCOCC2)cc1 | > 10 µM
CC(C)(C)c1ccc(NC(=O)c2cc(Cl)c(Cl)cc2C(=O)O)cc1 | > 10 µM
C=CCOC(=O)c1ccccc1C(=O)Nc1ccc(I)cc1 | > 10 µM
C=COc1ccc(NC(=O)c2ccccc2C(=O)O)cc1 | > 10 µM
O=C(O)c1ccccc1C(=O)Nc1ccc(Oc2ccccc2)cc1 | > 10 µM
C#CCOC(=O)c1ccccc1C(=O)Nc1ccc(Br)cc1 | > 10 µM
O=C(O)c1ccc(C(=O)Nc2ccc(O)cc2)c(C(=O)O)c1 | > 10 µM
COC(=O)c1ccccc1C(=O)Nc1ccc(C#N)cc1 | > 10 µM
COC(=O)c1ccccc1C(=O)Nc1ccccc1 | > 10 µM
CC(=O)c1ccc(NC(=O)c2ccccc2C(=O)O)cc1 [drawing 168] | > 10 µM

Structure (SMILES) | IC50
CC(=O)Nc1ccc(NC(=O)c2ccccc2C(=O)O)cc1 | > 10 µM
COC(=O)c1cc(C(=O)O)ccc1C(=O)Nc1ccc(C(=O)O)cc1 | > 10 µM
O=C(O)c1ccccc1C(=O)Nc1ccc(OC(F)F)cc1 | > 10 µM
O=C(O)c1ccccc1C(=O)Nc1ccc([N+](=O)[O-])cc1 | > 10 µM
O=C(Nc1ccccc1)c1ccccc1C(=O)OCc1ccc([N+](=O)[O-])cc1 | > 10 µM
CCCCCOc1ccc(NC(=O)c2ccccc2C(=O)O)cc1 | > 10 µM
O=C(O)c1ccccc1C(=O)Nc1ccc(S(=O)(=O)NCc2ccccc2)cc1 | > 10 µM
CC1COCCN1C(=O)c1ccc(NC(=O)c2ccccc2C(=O)O)cc1 (stereo not shown) | 2.64 µM
O=C(O)c1ccccc1C(=O)Nc1ccc(Oc2ccc3ccccc3c2)cc1 | > 10 µM
CCOc1ccc(NC(=O)c2cccc(O)c2C(=O)O)cc1 | > 10 µM
CCc1ccc(NC(=O)c2ccc(C(=O)O)cc2C(=O)O)cc1 | 0.925 µM
O=C(O)c1ccc(NC(=O)c2ccccc2C(=O)O)c(C(=O)O)c1 | > 10 µM
C#CCOC(=O)c1ccccc1C(=O)Nc1ccc(Cl)cc1 | > 10 µM
COc1ccc(NC(=O)c2cc(Cl)c(Cl)cc2C(=O)O)cc1 | > 10 µM
O=C(O)c1ccccc1C(=O)Nc1ccc(-c2csc(-c3ccccc3)n2)cc1 | > 10 µM
O=C(O)c1ccccc1C(=O)Nc1ccc(S(=O)(=O)N2CCCCC2)cc1 | 2.7 µM
Cc1ccc(Oc2ccc(NC(=O)c3ccccc3C(=O)O)cc2)cc1 | > 10 µM
Cc1ccc2nc(-c3ccc(NC(=O)c4ccccc4C(=O)O)cc3)sc2c1 | 0.987 µM
CC(C)(C)Oc1ccc(NC(=O)c2ccccc2C(=O)O)cc1 | > 10 µM
COc1ccc(NC(=O)c2ccccc2C(=O)Oc2ccc(OC)cc2)cc1 | > 10 µM
